In patent publication US7407953B2, “Wound healing” (Photopharmica Limited, priority 2007, dated 2008):
Values joined by “and” are separate entries in the source; they are usually repeats but may differ in a detail not shown here. Equal values may be shown once.

How the values were obtained:
intimal hyperplasia = details: local photodynamic action; Heckenkamp et al 2000; cited from earlier work
[1] = tested on: full thickness wound in flank skin of diabetic (db/db) mice; experiment: Wound healing in spontaneous diabetic (db/db) mice, PDT; assay type: in vivo, mice (c57BLKs/Bom db/db)
Source text: When wounds are created on (db/db) diabetic mice the wounds heal more slowly compared to the non diabetic mice. This delayed healing may be caused by a lack of vasculature to feed the wound. The delayed healing model is representative of a chronic wound, and wound healing effects of drugs can be more closely monitored and more easily measured.
18 animals were included in this study. 6 control non diabetic mice (db/+), 6 control diabetic (db/db) mice and 6 (db/db) PDT treated diabetic mice.
The 3,7-bis(N,N-dibutylamino)phenothiazin-5-ium bromide was formulated in ethanol and Unguentum M as described in Example 2 below at a concentration of 0.266 mg/mL.
On day 0, the animals were anaesthetised and a single standardised full thickness wound (7.5 mm×7.5 mm) was created in the flank skin of each experimental animal. Wounds were then dressed with a 1.5×1.5 cm pad of encapsulated gauze moistened with a fixed volume of sterile saline solution. […]
Image Pro image analysis software (version 4.1.0.0, obtained from Media Cybernetics, USA) was used to calculate wound closure from wound images in each of the experimental groups over time. For each wound at each time point—open wound area was measured and expressed in terms of % wound area relative to day 4 (treatment day).

[2] = tested on: full-thickness excisional wounds in flank skin of Wistar rats; experiment: Closure of full thickness excisional wounds in Wistar rat, PDT; assay type: in vivo
Method: 3,7-bis(N,N-dibutylamino)phenothiazin-5-ium bromide was solubilised in ethanol to give a concentration of 10 mg/ml. This was diluted in Unguentum M: 80% water, to give creams with final concentrations of 100 μM or 500 μM of 3,7-bis(N,N-dibutylamino)phenothiazin-5-ium bromide.
The above creams were used on the closure of full thickness excisional wounds in Wistar rats with exposure to light. The effect of topical application of 50 mg of 3,7-bis(N,N-dibutylamino)phenothiazin-5-ium bromide (at concentrations of 100 μM and 500 μM) followed by photo-activation with 688 nm laser light was investigated and compared to that of application of the drug delivery vehicle (Unguentum M) followed by 688 nm photo-activation. The light dose used was 50 J/cm^2. Wound repair was measured in terms of the closure of standardised full-thickness excisional wounds created in the flank skin of adult Wistar rats.

[3] = tested on: chronic non healing leg ulcers or diabetic foot ulcers; experiment: Clinical study, PDT on wound healing of chronic ulcers; assay type: in vivo, patients; details: 500 μM cream topical
Source text: After ethical review board approval and written informed participant consents were obtained, patients were recruited, provided they satisfied the ethically approved inclusion criteria. MHRA approval had been obtained.
Patients were recruited who had chronic non healing leg ulcers or diabetic foot ulcers. These patients had shown little or no wound healing for a number of weeks prior to treatment.
For the treatment 3,7-bis(N,N-dibutylamino)phenothiazin-5-ium bromide, formulated in ethanol and Unguentum M as described in Example 2 above at 500 μM, was applied topically to the ulcer surface and surrounding ulcer margin (5 mm) giving a cream depth of up to 5 mm. The ulcer was then left, not occluded, but in minimal lighting, for 15 minutes. After this pre-incubation time, the cream was rubbed into the ulcer so underlying skin/tissue could be seen through the cream. If this was not possible excess cream was removed. The ulcer was then illuminated using a broad band CureLight lamp (obtainable from PhotoCure) at a fluence rate of 20-50 mW/cm^2 giving a total light dose of 50 J/cm^2.
The ulcer area was measured pre treatment and after 1 week and one month.

[4] = tested on: full thickness wound in flank skin of Wistar rat; experiment: Wound healing in the Wistar rat, no light; assay type: in vivo; details: for % Wound area remaining, no light, 2 days post treatment / % Wound area remaining, no light, 4 days post treatment / % Wound area remaining, no light, 6 days post treatment: 100 mg topical, not illuminated
Method: On day 0, animals were anaesthetised and a single standardised full thickness wound (7.5 mm×7.5 mm) was created in the flank skin of each experimental animal. Wounds were dressed with a 1.5×1.5 cm pad of encapsulated gauze moistened with a fixed volume of sterile saline.
Wounds were allowed to heal without intervention for a period of 4 days, other than the replacement of saline moistened gauze and film dressings, as required.
On day 4 standard secondary dressings were removed. 100 mg of 100 μM or 500 μM 3,7-bis(N,N-dibutylamino)phenothiazin-5-ium bromide cream was applied to the wound. The wounds were not illuminated. The area of the wounds were measured prior to treatment (day 4) and on day 6, 8 and 10.

chronic leg ulcers = experiment: Phase IIa randomised, placebo controlled trial, PDT in chronic leg ulcers; assay type: in vivo, patients; details: 500 μM cream, 50 J/cm^2
Method: 16 patients with chronic leg ulcers were recruited for the study. All patients had ulcers that had been present for at least 3 months prior to treatment. After randomisation, 8 patients were treated with 3,7-bis(N,N-dibutylamino)phenothiazin-5-ium bromide PDT and 8 patients were treated with placebo. Ulcer area was measured before treatment and at 1 week, 1 month, 2 months and 3 months post treatment using a Visitrak system. Photographs were taken of the ulcers before treatment and at 24 h, 1 week, 1, 2 and 3 months post treatment.
Placebo cream was Unguentum Merck: water (1:2). 3,7-bis(N,N-dibutylamino)phenothiazin-5-ium bromide cream was 500 μM 3,7-bis(N,N-dibutylamino)phenothiazin-5-ium bromide in Unguentum Merck:water (1:2). For the treatment a 1 mm depth of cream was spread over the surface of the ulcer. The ulcer was then left, occluded under film, shielded from light for 15 minutes. At the end of the 15 minute incubation, excess cream was removed and the ulcer was illuminated using a CureLight 01 (obtainable from Photocure) at a light dose of 50 J/cm^2.

wounds = details: literature conclusions (Parekh 1999, Lambrects 2005, Hamblin 2003, Belmont 1999); cited from earlier work
[5] = tested on: rat skin flap reconstruction; details: Kubler et al 1996; cited from earlier work
[6] = individual patients 1-5, 50 J/cm^2 broad band light

CN(C)c1ccc2nc3ccc(=[N+](C)C)cc-3sc2c1 [methylene blue]
effect on intimal hyperplasia (intimal hyperplasia): retarding effect on intimal hyperplasia

CCCCN(CCCC)c1ccc2nc3ccc(N(CCCC)CCCC)cc3[s+]c2c1.[Br-] [3,7-bis(N,N-dibutylamino)phenothiazin-5-ium bromide]
% wound area (open wound area relative to day 4, treatment day) ([1]; diabetic db/db mice, 500 μM in Unguentum M topical + 25 J/cm^2 688 nm light, 3 days post treatment, 6 animals): 46% | rate of wound healing ([1]; in combination with light, treated diabetic mice vs control diabetic mice): substantial increase in the rate of wound healing | wound closure, light treatment vs compound alone ([2]; 100 μM cream, 50 mg topical, 688 nm laser light 50 J/cm^2): closed more rapidly | wound closure, higher dose vs lower dose ([2]; 500 μM cream vs 100 μM cream): closed more rapidly | adverse tissue responses, gross examination of wound and wound margin tissue ([2]; any treatment regime of the study): no adverse tissue responses were noted | area of the treated ulcers following the photodynamic treatment ([3]; 50 J/cm^2): reduction in the area of the treated ulcers | Percentage reduction in ulcer area at 1 month compared to pre treatment [3, 6]: 13% and 8% and 10% and 50% and 34% | Percentage reduction in ulcer area at 1 week compared to pre treatment [3, 6]: 8% and 14% and 0% and 23% | % Wound area remaining, no light, 2 days post treatment ([4]; 100 μM cream): 62% | % Wound area remaining, no light, 4 days post treatment ([4]; 100 μM cream): 33% | % Wound area remaining, no light, 6 days post treatment ([4]; 100 μM cream): 25% | % Wound area remaining, no light, 2 days post treatment ([4]; 500 μM cream): 62% | % Wound area remaining, no light, 4 days post treatment ([4]; 500 μM cream): 30% | % Wound area remaining, no light, 6 days post treatment ([4]; 500 μM cream): 19% | wound healing, 500 μM vs 100 μM ([4]; no light): heal faster at a 500 μM concentration than at 100 μM | healing as measured by the size of the wound, compared to placebo (chronic leg ulcers): Better healing | patients showing complete wound healing at 2 months (chronic leg ulcers; 2 out of 8 patients, placebo: none): 25% | patients showing complete wound healing at 3 months (chronic leg ulcers; 4 out of 8 patients, placebo: 1 out of 8 (12.5%)): 50%

Poly-lysine-chlorin e6
effect of PDT on wound healing (wounds): did not accelerate wound healing

Photofrin
effect on wound healing [5]: delayed wound healing | effect of PDT on wound healing (wounds): delay wound healing
